Among the data in PubChem BioAssay (NCI) are GI50 and TGI values, retold here.

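48-hour exposure; five concentrations; linearly interpolated endpoints. Abbreviation: GI50, concentration required for 50% inhibition of growth. Definition used: TGI = concentration required for complete inhibition of growth.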

One assay deals with CAKI-1 renal. Put plainly: NCI-60 cell line screen, 48 h.
With `Nc1nc(/C=C\c2ccc([N+](=O)[O-])o2)nc(N2CCN(c3ccccc3)CC2)n1`, the GI50 is 3.5 µM and the TGI was 10.8 µM.

For the compound `CC[C@H](Nc1nc(N)nc(C)c1C#N)c1nc2cccc(CN(C)c3ncc(C(=O)NO)cn3)c2c(=O)n1-c1ccccc1`, the GI50 was 2.61 µM and the TGI worked out at 6.56 µM.

For the compound `C=CCC(N[C@H](CO)C(C)C)c1cn(C(=O)OCC)c2ccccc12` (stereo not given in full), the GI50 was 13.8 µM and the TGI came out at 41.1 µM.

For `CC1=CC(=O)c2c(O)cccc2C1=O`, the TGI was 3.24 µM.

In the case of `O=S(=O)(c1ccc(NC(=S)NCc2cccnc2)cc1)N1CCCCC1`, the GI50 is 20.4 µM and the TGI is > 100 µM.

Regarding `O=C(O)CSSCC(=O)O`, the TGI is > 100 µM.

As for `COc1cccc(C2=C(c3cn(C)c4ccccc34)C(=O)NC2=O)c1`, the GI50 is 7.9 µM and the TGI was > 25 µM.

In a further assay the test system is DU-145 prostate. Kind of assay: NCI-60 cell line screen, 48 h.
For the compound `Nc1nc(/C=C\c2ccc([N+](=O)[O-])o2)nc(N2CCN(c3ccccc3)CC2)n1`, the GI50 is 3.9 µM and the TGI was determined as 41.4 µM.

Consider `CC[C@H](Nc1nc(N)nc(C)c1C#N)c1nc2cccc(CN(C)c3ncc(C(=O)NO)cn3)c2c(=O)n1-c1ccccc1`, for which the GI50 was 1.11 µM and the TGI was > 16.7 µM.

`C=CCC(N[C@H](CO)C(C)C)c1cn(C(=O)OCC)c2ccccc12` (stereo not given in full): the GI50 is 30.1 µM and the TGI was > 100 µM.

As to `CC1=CC(=O)c2c(O)cccc2C1=O`, the TGI was found to be 3.02 µM.

`O=S(=O)(c1ccc(NC(=S)NCc2cccnc2)cc1)N1CCCCC1`: the GI50 is 6.12 µM and the TGI was > 100 µM.

On to `O=C(O)CSSCC(=O)O`, for which the TGI is > 100 µM.

Take `COc1cccc(C2=C(c3cn(C)c4ccccc34)C(=O)NC2=O)c1`: the GI50 is > 25 µM and the TGI is > 25 µM.

The test system of a further assay is SNB-75 CNS. Kind of assay: NCI-60 cell line screen, 48 h.
On to `Nc1nc(/C=C\c2ccc([N+](=O)[O-])o2)nc(N2CCN(c3ccccc3)CC2)n1`, for which the GI50 is 20.9 µM and the TGI is 47 µM.

With `CC[C@H](Nc1nc(N)nc(C)c1C#N)c1nc2cccc(CN(C)c3ncc(C(=O)NO)cn3)c2c(=O)n1-c1ccccc1`, the GI50 was 0.244 µM and the TGI is 1.82 µM.

For the compound `C=CCC(N[C@H](CO)C(C)C)c1cn(C(=O)OCC)c2ccccc12` (stereo not given in full), the GI50 is 69.3 µM and the TGI was > 100 µM.

In turn, `CC1=CC(=O)c2c(O)cccc2C1=O` had a TGI of 16.9 µM.

In the case of `O=S(=O)(c1ccc(NC(=S)NCc2cccnc2)cc1)N1CCCCC1`, the GI50 was 25.6 µM and the TGI was > 100 µM.

`O=C(O)CSSCC(=O)O`: the TGI is > 100 µM.

Turning to `COc1cccc(C2=C(c3cn(C)c4ccccc34)C(=O)NC2=O)c1`, the GI50 was 1.32 µM and the TGI is > 25 µM.

The subject of the next assay is LOX IMVI melanoma. Put plainly: NCI-60 cell line screen, 48 h.
Take `Nc1nc(/C=C\c2ccc([N+](=O)[O-])o2)nc(N2CCN(c3ccccc3)CC2)n1`: the GI50 is 3.49 µM and the TGI was found to be 21.2 µM.

With `CC[C@H](Nc1nc(N)nc(C)c1C#N)c1nc2cccc(CN(C)c3ncc(C(=O)NO)cn3)c2c(=O)n1-c1ccccc1`, the GI50 was 0.693 µM and the TGI came out at 1.35 µM.

`C=CCC(N[C@H](CO)C(C)C)c1cn(C(=O)OCC)c2ccccc12` (stereo not given in full): the GI50 was 19.4 µM and the TGI is 49.5 µM.

`CC1=CC(=O)c2c(O)cccc2C1=O` registered a TGI of 3.32 µM.

As to `O=S(=O)(c1ccc(NC(=S)NCc2cccnc2)cc1)N1CCCCC1`, the GI50 is 6.93 µM and the TGI was > 100 µM.

For the compound `O=C(O)CSSCC(=O)O`, the TGI is > 100 µM.

As to `COc1cccc(C2=C(c3cn(C)c4ccccc34)C(=O)NC2=O)c1`, the GI50 is 13 µM and the TGI was > 25 µM.

Another assay concerns UACC-62 melanoma. Kind of assay: NCI-60 cell line screen, 48 h.
In the case of `Nc1nc(/C=C\c2ccc([N+](=O)[O-])o2)nc(N2CCN(c3ccccc3)CC2)n1`, the GI50 was 7.36 µM and the TGI stood at 25.8 µM.

As to `CC[C@H](Nc1nc(N)nc(C)c1C#N)c1nc2cccc(CN(C)c3ncc(C(=O)NO)cn3)c2c(=O)n1-c1ccccc1`, the GI50 was 0.199 µM and the TGI is 0.897 µM.

Consider `C=CCC(N[C@H](CO)C(C)C)c1cn(C(=O)OCC)c2ccccc12` (stereo not given in full), for which the GI50 was 22.7 µM and the TGI amounted to 54.8 µM.

Compound `CC1=CC(=O)c2c(O)cccc2C1=O` displayed a TGI of 3.4 µM.

On to `O=S(=O)(c1ccc(NC(=S)NCc2cccnc2)cc1)N1CCCCC1`, for which the GI50 is 23.4 µM and the TGI is > 100 µM.

Take `O=C(O)CSSCC(=O)O`: the TGI is > 100 µM.

For `COc1cccc(C2=C(c3cn(C)c4ccccc34)C(=O)NC2=O)c1`, the GI50 was 11.5 µM and the TGI is > 25 µM.

A further assay concerns HOP-62 NSCLC. Kind of assay: NCI-60 cell line screen, 48 h.
Take `Nc1nc(/C=C\c2ccc([N+](=O)[O-])o2)nc(N2CCN(c3ccccc3)CC2)n1`: the GI50 is 17.5 µM and the TGI was found to be 51.3 µM.

For `CC[C@H](Nc1nc(N)nc(C)c1C#N)c1nc2cccc(CN(C)c3ncc(C(=O)NO)cn3)c2c(=O)n1-c1ccccc1`, the GI50 is 0.804 µM and the TGI stood at 4.42 µM.

With `C=CCC(N[C@H](CO)C(C)C)c1cn(C(=O)OCC)c2ccccc12` (stereo not given in full), the GI50 is 28.6 µM and the TGI stood at 89.1 µM.

As to `CC1=CC(=O)c2c(O)cccc2C1=O`, the TGI came to 17.6 µM.

On to `O=S(=O)(c1ccc(NC(=S)NCc2cccnc2)cc1)N1CCCCC1`, for which the GI50 is > 100 µM and the TGI was > 100 µM.

Regarding `O=C(O)CSSCC(=O)O`, the TGI was > 100 µM.

Take `COc1cccc(C2=C(c3cn(C)c4ccccc34)C(=O)NC2=O)c1`: the GI50 is > 22.8 µM and the TGI is > 25 µM.

A further assay concerns HCT-116 colon. Put plainly: NCI-60 cell line screen, 48 h.
For `Nc1nc(/C=C\c2ccc([N+](=O)[O-])o2)nc(N2CCN(c3ccccc3)CC2)n1`, the GI50 was 2.61 µM and the TGI amounted to 12.2 µM.

Regarding `CC[C@H](Nc1nc(N)nc(C)c1C#N)c1nc2cccc(CN(C)c3ncc(C(=O)NO)cn3)c2c(=O)n1-c1ccccc1`, the GI50 is 0.364 µM and the TGI is 2.92 µM.

As for `C=CCC(N[C@H](CO)C(C)C)c1cn(C(=O)OCC)c2ccccc12` (stereo not given in full), the GI50 is 24.2 µM and the TGI amounted to 68.8 µM.

As for `CC1=CC(=O)c2c(O)cccc2C1=O`, the TGI stood at 3.11 µM.

As for `O=S(=O)(c1ccc(NC(=S)NCc2cccnc2)cc1)N1CCCCC1`, the GI50 was 0.47 µM and the TGI is > 100 µM.

On to `O=C(O)CSSCC(=O)O`, for which the TGI was > 100 µM.

Regarding `COc1cccc(C2=C(c3cn(C)c4ccccc34)C(=O)NC2=O)c1`, the GI50 was 7.26 µM and the TGI was > 25 µM.

Another assay concerns NCI-H460 lung. Put plainly: NCI-60 cell line screen, 48 h.
In the case of `Nc1nc(/C=C\c2ccc([N+](=O)[O-])o2)nc(N2CCN(c3ccccc3)CC2)n1`, the GI50 is 3.09 µM and the TGI was > 100 µM.

On to `CC[C@H](Nc1nc(N)nc(C)c1C#N)c1nc2cccc(CN(C)c3ncc(C(=O)NO)cn3)c2c(=O)n1-c1ccccc1`, for which the GI50 was 1.15 µM and the TGI is 11.2 µM.

`C=CCC(N[C@H](CO)C(C)C)c1cn(C(=O)OCC)c2ccccc12` (stereo not given in full): the GI50 was 32.4 µM and the TGI is > 100 µM.

For `CC1=CC(=O)c2c(O)cccc2C1=O`, the TGI is > 26.1 µM.

`O=S(=O)(c1ccc(NC(=S)NCc2cccnc2)cc1)N1CCCCC1`: the GI50 is 7.67 µM and the TGI was > 100 µM.

`O=C(O)CSSCC(=O)O`: the TGI is > 100 µM.

For the compound `COc1cccc(C2=C(c3cn(C)c4ccccc34)C(=O)NC2=O)c1`, the GI50 was 13.7 µM and the TGI was > 25 µM.

The next assay deals with OVCAR-4 ovarian. Put plainly: NCI-60 cell line screen, 48 h.
Regarding `Nc1nc(/C=C\c2ccc([N+](=O)[O-])o2)nc(N2CCN(c3ccccc3)CC2)n1`, the GI50 was 27.2 µM and the TGI is > 100 µM.

As to `CC[C@H](Nc1nc(N)nc(C)c1C#N)c1nc2cccc(CN(C)c3ncc(C(=O)NO)cn3)c2c(=O)n1-c1ccccc1`, the GI50 is 1.01 µM and the TGI turned out to be 6.56 µM.

In the case of `C=CCC(N[C@H](CO)C(C)C)c1cn(C(=O)OCC)c2ccccc12` (stereo not given in full), the GI50 is 49.6 µM and the TGI was > 100 µM.

Compound `CC1=CC(=O)c2c(O)cccc2C1=O` came in with a TGI of 3.26 µM.

Take `O=S(=O)(c1ccc(NC(=S)NCc2cccnc2)cc1)N1CCCCC1`: the GI50 is 23 µM and the TGI was > 100 µM.

`O=C(O)CSSCC(=O)O`: the TGI is > 100 µM.

Regarding `COc1cccc(C2=C(c3cn(C)c4ccccc34)C(=O)NC2=O)c1`, the GI50 is 9.61 µM and the TGI was > 25 µM.

Another assay relates to BT-549 breast. Kind of assay: NCI-60 cell line screen, 48 h.
Regarding `Nc1nc(/C=C\c2ccc([N+](=O)[O-])o2)nc(N2CCN(c3ccccc3)CC2)n1`, the GI50 was 15.7 µM and the TGI is > 100 µM.

For `CC[C@H](Nc1nc(N)nc(C)c1C#N)c1nc2cccc(CN(C)c3ncc(C(=O)NO)cn3)c2c(=O)n1-c1ccccc1`, the GI50 was 2.26 µM and the TGI was determined as 12.5 µM.

Regarding `C=CCC(N[C@H](CO)C(C)C)c1cn(C(=O)OCC)c2ccccc12` (stereo not given in full), the GI50 is 24.7 µM and the TGI is 67.8 µM.

With `CC1=CC(=O)c2c(O)cccc2C1=O`, the TGI amounted to 3.15 µM.

Take `O=S(=O)(c1ccc(NC(=S)NCc2cccnc2)cc1)N1CCCCC1`: the GI50 was > 100 µM and the TGI was > 100 µM.

As to `O=C(O)CSSCC(=O)O`, the TGI was > 100 µM.

On to `COc1cccc(C2=C(c3cn(C)c4ccccc34)C(=O)NC2=O)c1`, for which the GI50 is 11.9 µM and the TGI is > 25 µM.
